Where “and” joins values, the source holds several entries; their conditions need not be identical. Identical values can stand only once. Like-named read-outs stand apart in the source and are kept apart here.
Key:
[1] = test system: Peterson×Hubbard male broiler chicks; conditions: in vivo
[2] = test system: Avian x Ross broiler chicks; assay: Second experiment, less environmental stress: feed efficiency ratios through day 14; format: in vivo; conditions: for Feed efficiency ratio, MEAN: through day 14; for conversion of feed to weight vs saline (in words): day 14
[3] = test system: Peterson×Hubbard male broiler chicks; conditions: in vivo; remark: listed apart in the source

## NCCC(=O)NCCSSCCNC(=O)CCN [beta-alethine]
[1]
  Survival (% Alive): 96% and 100% and 99% and 98%
  chicks died in one pen: 5
  mortality rate: 0%
[1]; sc
  # dead from all causes of death (cumulative): 0
  Survival (% Alive): 100%
[2]; 2 pg in ovo vs saline in ovo #1
  % decrease over saline control, saline #1: 0.34%
[2]; 2 pg in ovo vs saline in ovo #2
  % decrease over saline control, saline #2: −0.34%
[2]; 2 pg per bird in ovo
  Feed efficiency ratio, MEAN: 1.181
[2]; 2 pg per bird sc
  Feed efficiency ratio, MEAN: 1.173
[2]; 2 pg sc vs saline s.c. control
  % decrease over saline control: −0.89%
[2]; 2 ng in ovo + fed in water (2 ng weekly) vs saline in ovo #1
  % decrease over saline control, saline #1: 2.39%
[2]; 2 ng in ovo + fed in water (2 ng weekly) vs saline in ovo #2
  % decrease over saline control, saline #2: 1.73%
[2]; 2 ng in ovo + fed in water (2 ng weekly)
  Feed efficiency ratio, MEAN: 1.157
[2]; 2 ng in ovo vs saline in ovo #1
  % decrease over saline control, saline #1: 3.21%
[2]; 2 ng in ovo
  conversion of feed to weight vs saline (in words): significantly greater conversion of feed to weight
[2]; 2 ng per bird in ovo
  Feed efficiency ratio, MEAN: 1.147
[2]; 2 ng per bird sc
  Feed efficiency ratio, MEAN: 1.150
[2]; 2 ng s.c., not significant vs s.c. saline
  conversion of feed to weight vs saline (in words): significantly better than saline given in ovo
[2]; 2 ng sc vs saline s.c. control
  % decrease over saline control: 1.16%
[2]; normal flock of Avian×Ross broiler chicks
  average decrease in feed efficiency ratios: about 4%
[3]
  Deliverable Weight Ratio: 1.367
  Deliverable Weight Ratio, % improvement vs negative control: 10.8%
  Feed Efficiency: 1.298
  Feed Efficiency, % improvement vs negative control: 7.9%

Source: patent US7071232B1, “Small molecules that increase the conversion of food to body weight gain” (priority 1998, dated 2006)
